Assay [1] concerns the target T1, biotinylated wild-type menin and MLL-AF9 fusion protein (menin/MLL binding) (Homo sapiens, UniProt O00255).
T1 construct: made in house; host or cells: menin: E. coli; MLL-AF9-FLAG: HEK293 cells, used as cleared lysate
T1 sequence (O00255 1-610): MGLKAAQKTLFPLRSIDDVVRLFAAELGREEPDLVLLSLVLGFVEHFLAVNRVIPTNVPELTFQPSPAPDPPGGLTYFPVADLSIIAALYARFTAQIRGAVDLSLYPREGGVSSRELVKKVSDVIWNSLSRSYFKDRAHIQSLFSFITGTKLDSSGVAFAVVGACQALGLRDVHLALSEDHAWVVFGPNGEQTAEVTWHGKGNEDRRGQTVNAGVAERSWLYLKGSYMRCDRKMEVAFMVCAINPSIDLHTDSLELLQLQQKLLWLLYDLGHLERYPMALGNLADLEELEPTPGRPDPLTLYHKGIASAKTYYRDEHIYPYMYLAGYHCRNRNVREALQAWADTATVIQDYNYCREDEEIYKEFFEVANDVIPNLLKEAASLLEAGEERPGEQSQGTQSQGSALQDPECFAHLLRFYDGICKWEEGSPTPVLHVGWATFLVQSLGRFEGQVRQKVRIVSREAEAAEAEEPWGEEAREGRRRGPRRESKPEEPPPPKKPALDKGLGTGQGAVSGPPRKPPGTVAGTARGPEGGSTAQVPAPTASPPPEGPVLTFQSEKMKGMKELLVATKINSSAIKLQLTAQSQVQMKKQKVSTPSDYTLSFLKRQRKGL
Put plainly: Assay 1: menin/MLL binding AlphaLISA assay, wild-type menin. As to conditions: Table 30; column head does not say wild-type or mutated menin. The essentials:
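Compound was preincubated 30 min at room temperature with biotinylated menin (5 nM) and MLL-AF9-FLAG lysate from HEK293 cells, pH 7.4 buffer with 5% DMSO and DTT. Bead-based Alpha signal after 60 min with streptavidin donor and anti-FLAG acceptor beads; four-parameter logistic fit gave IC50.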
(Alpha assays give light when donor and acceptor beads are brought close together.)

The test system of assay [2] is human acute monocytic leukemia cell line MV-4-11. The assay can be described thus: Assay 2: cell proliferation assay (ATP quantitation, CellTiter-Glo), MV-4-11. Type of assay: cell-based. The note with it: MV-4-11 cells. Here is the method:
Potencies of inhibitor compounds against cell proliferation was assessed against the human acute monocytic leukemia cell line MV-4-11 (ATCC® CRL-9591™) based on ATP quantitation. MV-4-11 cells or toxicity control HL-60 cells (ATCC® CCL-240™) were incubated in 96-well tissue culture plates (1.67×10^4 cells in 200 μL culture media containing 10% FBS per well) with or without test compound for 72 h at 37° C., 5% CO2. After incubation, each well was mixed by pipetting and 95 μL from each well was transferred to a well in 96-well black OptiPlate® plates (PerkinElmer). An equal volume of CellTiter-Glo® Luminescent Cell Viability Assay reagent (Promega) was added to each well, followed by mixing for 5 min on an orbital plate shaker. Luminescence was measured on a Wallac EnVision 2104 Multilabel Reader (PerkinElmer) to quantitate ATP.

Among the data in US12312359B2 (Vitae Pharmaceuticals, LLC, priority 2016, dated 2025) are IC50 and EC50 values, retold here.

The structures appear in SMILES notation. Where only a bound is given, the exact number is not on record here.

`CC(=O)NCCn1c(=O)[nH]c2cc(CN3CCC4(CCN(c5ncncc5Oc5ccc(F)cc5C(=O)N(C)C(C)C)C4)C3)ccc21` (centres unmarked) [Example 123, 2-((4-(7-((1-(2-acetamidoethyl)-2-oxo-2,3-dihydro-1H-benzo[d]imidazol-5-yl)methyl)-2,7-diazaspiro[4.4]nonan-2-yl)pyrimidin-5-yl)oxy)-5-fluoro-N-isopropyl-N-methylbenzamide] gave an IC50 in assay [1] of under 100 nM. This molecule also came in with an EC50 in assay [2] (Homo sapiens, MV4-11, 72 h) of at least 1000 nM.

Regarding `N#Cc1ccc(-c2cc(F)ccc2Oc2cncnc2N2CCC3(CCN(Cc4ccc5[nH]c(=O)[nH]c5c4)C3)C2)c(C2CC2)c1` (single isomer, unassigned) [Example 42B, 2-cyclopropyl-5′-fluoro-2′-((4-(7-((2-oxo-2,3-dihydro-1H-benzo[d]imidazol-5-yl)methyl)-2,7-diazaspiro[4.4]nonan-2-yl)pyrimidin-5-yl)oxy)-[1,1′-biphenyl]-4-carbonitrile], the IC50 in assay [1] is under 100 nM. Moreover, in assay [2] (72 h), the half-maximal effective concentration (EC50) was under 100 nM.

Molecule `NS(=O)(=O)c1ccc2c(c1)CC(C(=O)N1CC3(C1)CN(c1ncncc1Oc1ccc(F)cc1Cl)C3)C2` (centres unmarked) [Example 40, 2-(6-(5-(2-chloro-4-fluorophenoxy)pyrimidin-4-yl)-2,6-diazaspiro[3.3]heptane-2-carbonyl)-2,3-dihydro-1H-indene-5-sulfonamide] showed an IC50 in assay [1] of 100 to 1000 nM. The same molecule displayed an EC50 in assay [2] (Homo sapiens, MV4-11, 72 h) of at least 1000 nM.

The molecule `CCC(C)(OC)c1cc(F)ccc1Oc1cncnc1N1CCC2(CCN(Cc3ccc4[nH]c(=O)[nH]c4c3)C2)C1` (centres unmarked) [Example 33, 5-((7-(5-(4-fluoro-2-(2-methoxybutan-2-yl)phenoxy)pyrimidin-4-yl)-2,7-diazaspiro[4.4]nonan-2-yl)methyl)-1,3-dihydro-2H-benzo[d]imidazol-2-one] registered an IC50 in assay [1] of under 100 nM. The molecule further gave a half-maximal effective concentration (EC50) in assay [2] (Homo sapiens, MV4-11, 72 h) of 100 to 1000 nM.

The molecule `CN(C(=O)c1cc(F)ccc1Oc1cncnc1N1CCC2(CCN(Cc3ccc4[nH]c(=O)[nH]c4c3)C2)C1)C(C)(C)C` (centres unmarked) [Example 175, N-(tert-butyl)-5-fluoro-N-methyl-2-((4-(7-((2-oxo-2,3-dihydro-1H-benzo[d]imidazol-5-yl)methyl)-2,7-diazaspiro[4.4]nonan-2-yl)pyrimidin-5-yl)oxy)benzamide] came in with an IC50 in assay [1] of under 100 nM. The same molecule yielded a concentration for a half-maximal effect (EC50) in assay [2] (Homo sapiens, MV4-11, 72 h) of at least 1000 nM.

Turning to `CC(C)c1ncncc1-c1cc(F)ccc1Oc1cncnc1N1CC2(CN(CC3CCC4(CC3)OCCO4)C2)C1` [Example 64, 2-(1,4-dioxaspiro[4.5]decan-8-ylmethyl)-6-(5-(4-fluoro-2-(4-isopropylpyrimidin-5-yl)phenoxy)pyrimidin-4-yl)-2,6-diazaspiro[3.3]heptane], in assay [1], the IC50 was under 100 nM. The same molecule yielded an EC50 in assay [2] (Homo sapiens, MV4-11, 72 h) of 100 to 1000 nM.

Molecule `CC(C)c1ccccc1-c1cc(F)ccc1Oc1cncnc1N1CC2(CN(CC3CCOCC3)C2)C1` [Example 237A, 2-(5-((5-fluoro-2′-isopropyl-[1,1′-biphenyl]-2-yl)oxy)pyrimidin-4-yl)-6-((tetrahydro-2H-pyran-4-yl)methyl)-2,6-diazaspiro[3.3] heptane] had a half-maximal inhibitory concentration (IC50) in assay [1] of under 100 nM. In assay [2] (Homo sapiens, MV4-11, 72 h), the 50% effective concentration (EC50) is under 100 nM.

`CC(C)N(C)C(=O)c1cc(F)ccc1Oc1cncnc1N1CCC2(CCN(Cc3ccc(N4CCOC4=O)cc3)C2)C1` (centres unmarked) [Example 142, 5-fluoro-N-isopropyl-N-methyl-2-((4-(7-(4-(2-oxooxazolidin-3-yl)benzyl)-2,7-diazaspiro[4.4]nonan-2-yl)pyrimidin-5-yl)oxy)benzamide] displayed an IC50 in assay [1] of under 100 nM. The molecule also registered a concentration giving a half-maximal response (EC50) in assay [2] (72 h) of at least 1000 nM.

In the case of `CC(C)c1ncncc1-c1cc(F)ccc1Oc1cncnc1N1CC2(CC(NCc3ccccc3)CO2)C1` (centres unmarked) [Example 159, N-benzyl-2-(5-(4-fluoro-2-(4-isopropylpyrimidin-5-yl)phenoxy)pyrimidin-4-yl)-5-oxa-2-azaspiro[3.4]octan-7-amine], the 50% inhibitory concentration (IC50) in assay [1] is under 100 nM. The molecule also returned a concentration giving a half-maximal response (EC50) in assay [2] (Homo sapiens, MV4-11, 72 h) of 100 to 1000 nM.

Molecule `CC(C)N(C)C(=O)c1cc(F)ccc1Oc1cncnc1N1CCC2(CCN(Cc3c[nH]c4cc(C#N)ccc34)C2)C1` (centres unmarked) [Example 194, 2-((4-(7-((6-cyano-1H-indol-3-yl)methyl)-2,7-diazaspiro[4.4]nonan-2-yl)pyrimidin-5-yl)oxy)-5-fluoro-N-isopropyl-N-methylbenzamide] displayed an IC50 in assay [1] of under 100 nM. In assay [2] (Homo sapiens, MV4-11, 72 h), this molecule had a concentration giving a half-maximal response (EC50) of 100 to 1000 nM.

In turn, `CCn1c(=O)[nH]c2cc(CN3CCC4(CCN(c5ncncc5Oc5ccc(F)cc5C(=O)N(C)C(C)C)C4)C3)ccc21` (centres unmarked) [Example 128, 2-((4-(7-((1-ethyl-2-oxo-2,3-dihydro-1H-benzo[d]imidazol-5-yl)methyl)-2,7-diazaspiro[4.4]nonan-2-yl)pyrimidin-5-yl)oxy)-5-fluoro-N-isopropyl-N-methylbenzamide] displayed an IC50 in assay [1] of under 100 nM. In addition, the concentration for a half-maximal effect (EC50) in assay [2] (Homo sapiens, MV4-11, 72 h) is 100 to 1000 nM.

As to `CC(C)n1nccc1-c1cc(F)ccc1Oc1cncnc1N1CCC2(CCN(Cc3ccc4[nH]c(=O)[nH]c4c3)C2)C1` (centres unmarked) [Example 237, 5-((7-(5-(4-fluoro-2-(1-isopropyl-1H-pyrazol-5-yl)phenoxy)pyrimidin-4-yl)-2,7-diazaspiro[4.4]nonan-2-yl)methyl)-1,3-dihydro-2H-benzo[d]imidazol-2-one], the concentration for half-maximal inhibition (IC50) in assay [1] was under 100 nM. The molecule further displayed a 50% effective concentration (EC50) in assay [2] (Homo sapiens, MV4-11, 72 h) of under 100 nM.

In turn, `CC(C)N(C(=O)c1cc(F)ccc1Oc1cncnc1N1CC2(CCN(C[C@H]3CC[C@H](NS(C)(=O)=O)CC3)CC2)C1)C(C)C` [Example 6A, 5-fluoro-N,N-diisopropyl-2-((4-(7-(((1r,4r)-4-(methylsulfonamido)cyclohexyl)methyl)-2,7-diazaspiro[3.5]nonan-2-yl)pyrimidin-5-yl)oxy)benzamide] displayed an IC50 in assay [1] of under 100 nM. The same molecule came in with an EC50 in assay [2] (Homo sapiens, MV4-11, 72 h) of under 100 nM.

`CC(C)N(C(=O)c1cc(F)ccc1Oc1cncnc1N1CC2(CC(N(C)C3CCOCC3)C2)C1)C(C)C` [Example 240, 5-fluoro-N,N-diisopropyl-2-((4-(6-(methyl(tetrahydro-2H-pyran-4-yl)amino)-2-azaspiro[3.3]heptan-2-yl)pyrimidin-5-yl)oxy)benzamide] showed an IC50 in assay [1] of under 100 nM. Further, in assay [2] (Homo sapiens, MV4-11, 72 h), the EC50 was under 100 nM.

In assay [1], `CC(C)N(C)C(=O)c1cc(F)ccc1Oc1cncnc1N1CCC2(CCN(Cc3ccc(N4CCOC4=O)cc3)C2)C1` (centres unmarked) [Example 62, 5-fluoro-N-isopropyl-N-methyl-2-((4-(7-(4-(2-oxooxazolidin-3-yl)benzyl)-2,7-diazaspiro[4.4]nonan-2-yl)pyrimidin-5-yl)oxy)benzamide] had an IC50 of under 100 nM. In assay [2] (72 h), this molecule came in with an EC50 of 100 to 1000 nM.

Molecule `COCCn1c(=O)[nH]c2cc(CN3CCC4(CCN(c5ncncc5Oc5ccc(F)cc5-c5cncnc5C(C)C)C4)C3)ccc21` (centres unmarked) [Example 131, 5-((7-(5-(4-fluoro-2-(4-isopropylpyrimidin-5-yl)phenoxy)pyrimidin-4-yl)-2,7-diazaspiro[4.4]nonan-2-yl)methyl)-1-(2-methoxyethyl)-1,3-dihydro-2H-benzo[d]imidazol-2-one] came in with an IC50 in assay [1] of under 100 nM. Moreover, the EC50 in assay [2] (Homo sapiens, MV4-11, 72 h) was under 100 nM.

Take `CC(C)N(C(=O)c1cc(F)ccc1Oc1cncnc1N1CCC2(CCC(N)(Cc3ccc(C#N)cc3)C2)C1)C(C)C` (single isomer, unassigned) [Example 22A, 2-((4-(7-amino-7-(4-cyanobenzyl)-2-azaspiro[4.4]nonan-2-yl)pyrimidin-5-yl)oxy)-5-fluoro-N,N-diisopropylbenzamide]: the concentration for half-maximal inhibition (IC50) in assay [1] is under 100 nM. Also, the EC50 in assay [2] (Homo sapiens, MV4-11, 72 h) was at least 1000 nM.

Regarding `CC(C)N(C)C(=O)c1cc(F)ccc1Oc1cncnc1N1CCC2(CCN(Cc3ccc4c(c3)NC(=O)C4(C)C#N)C2)C1` (centres unmarked) [Example 125, 2-((4-(7-((3-cyano-3-methyl-2-oxoindolin-6-yl)methyl)-2,7-diazaspiro [4.4]nonan-2-yl)pyrimidin-5-yl)oxy)-5-fluoro-N-isopropyl-N-methylbenzamide], the half-inhibitory concentration (IC50) in assay [1] is under 100 nM. In addition, the half-maximal effective concentration (EC50) in assay [2] (Homo sapiens, MV4-11, 72 h) was under 100 nM.

`CCN(C(=O)c1cc(F)ccc1Oc1cncnc1N1CCC2(CCN(Cc3ccc4c(c3)[nH]c(=O)n4CCO)C2)C1)C(C)C` (single isomer, unassigned) [Example 4A, N-ethyl-5-fluoro-2-((4-(7-((1-(2-hydroxyethyl)-2-oxo-2,3-dihydro-1H-benzo[d]imidazol-5-yl)methyl)-2,7-diazaspiro[4.4]nonan-2-yl)pyrimidin-5-yl)oxy)-N-isopropylbenzamide]: in assay [1], the IC50 is under 100 nM. The molecule further gave a concentration for a half-maximal effect (EC50) in assay [2] (Homo sapiens, MV4-11, 72 h) of under 100 nM.

What is called IC50 is the concentration needed to halve the response being measured. By EC50 is commonly meant the concentration giving half of the maximal effect.
